According to patent EP0292365A2, “4-Amino-5,8-quinazolindione derivatives, process for their preparation and pharmaceutical compositions containing them” (CENTRE NATIONAL DE LA RECHERCHE SCIENTIFIQUE, priority 1987, dated 1988):

Columns and labels:
cellules de lignée MCF-7 = assay: Effect on in vitro cell growth, MCF-7 line (Feulgen staining, automated scanning microscopy); assay type: cell-based, humaine; conditions: for nombre de cellules observées par champ de microscope: MCF-7
Procedure: (§1) Les cellules tumorales en croissance exponentielle sont ensemencées (10.000 cellules/ml) dans des boîtes à Petri contenant au fond de la boîte un couvre-objet (18 x 18 mm) et 3 ml de MEM (MEM = milieu essentiel minimum) + 5 % FCS (FCS = serum de veau fetal) (v/v). Après 24 heures d'incubation, quand les cellules sont bien attachées au fond de la boîte, le milieu est remplacé par MEM expérimental contenant 5 % FCS (v/v) et enrichi, par exemple de : • a) 3 ml du milieu (MEM + 5 % FCS) = témoins • b) 3 ml du milieu contenant une dose élevée du composé à tester : 10 µg/ml : (M) • c) milieu contenant une faible dose du composé à tester : 0.01 µg/ml (f) respectivement aux jours 1, 2, 3 et 4 après addition du milieu expérimental dans les boîtes de Petri. Trois couvre-objets sont fixés pour chaque condition expérimentale : éthanol 95° (75 v), formol neutre à 40 % (20 v), acide acétique (5 v), pendant 10 minutes. Les cellules témoins cultivées dans le milieu expérimental sans le produit à tester sont fixées au même moment. A la fin de la fixation, les couvre-objets sont retournés et montés sur des lames histologiques à l'aide de produit commercialisé sous la marque DPX par la Société British Drug House et conservés à l'abri de la lumière et à 4° en attendant d'être colorés.
(§2) Les lames avec les couvre-objets sont colorées par une réaction de Feulgen modifiée. Toutes les lames d'une condition expérimentale sont conditionnées par le réactif de Feulgen en même temps, pendant une heure, après hydrolyse dans un milieu HCI 6N pendant une heure à 20° C. Les préparations cellulaires sont ensuite conservées à l'abri de la lumière et à 4°C en attendant l'analyse.
(§3) Grâce à un système d'analyse microscopique à balayage automatique, on détermine l'effet de la drogue sur la croissance cellulaire, au cours du temps, sur deux lignées cellulaires tumorales d'origine humaine : la lignée MCF-7 d'origine mammaire et la lignée HBL (mélanome malin).
(§4) On a représenté dans le tableau C les résultats relatifs à l'action du composé 63 sur la croissance des cellules de lignée MCF-7 et dans le tableau C BIS, les résultats relatifs à l'action du composé 63 sur la croissance des cellules de lignée HBL. Ces résultats montrent le nombre de cellules survivant au traitement après 1, 2, 3 et 4 jours d'incubation et à trois doses différentes (10 µg/ml, 1 µg/ml et 0,1 µg/ml).
(§5) Chaque chiffre correspond au nombre de cellules observées par champ de microscope.

cellules de lignée HBL = assay: Effect on in vitro cell growth, HBL line (Feulgen staining, automated scanning microscopy); assay type: cell-based, humaine; conditions: for nombre de cellules observées par champ de microscope: HBL
Procedure: as §1, §2, §3, §4, §5

cellules MCF-7 = assay: Effect on cell cycle phases, MCF-7 line; assay type: cell-based, humaine; conditions: summary of tableau D
Procedure: as §1
Les lames avec les couvre-objets sont colorées par une réaction de Feulgen modifiée. […]

[1] = Solubility in water (statement); assay type: physicochemical

SMILES: CN(C)CCCNc1ncnc2c1C(=O)C(N1CC1)=C(N1CC1)C2=O [composé 63]
- nombre de cellules observées par champ de microscope (cellules de lignée MCF-7; 0.1µg/ml (f), 1j): 174± 38 ns
- nombre de cellules observées par champ de microscope (cellules de lignée MCF-7; 0.1µg/ml (f), 2j): 92± 21
- nombre de cellules observées par champ de microscope (cellules de lignée MCF-7; 0.1µg/ml (f), 3j): 38± 6
- nombre de cellules observées par champ de microscope (cellules de lignée MCF-7; 0.1µg/ml (f), 4j): 30± 4
- nombre de cellules observées par champ de microscope (cellules de lignée MCF-7; 1µg/ml (M), 1j): 133± 7 ns
- nombre de cellules observées par champ de microscope (cellules de lignée MCF-7; 1µg/ml (M), 2j): 85± 8
- nombre de cellules observées par champ de microscope (cellules de lignée MCF-7; 1µg/ml (M), 3j): 58± 7
- nombre de cellules observées par champ de microscope (cellules de lignée MCF-7; 1µg/ml (M), 4j): 63± 8
- nombre de cellules observées par champ de microscope (cellules de lignée MCF-7; 10µg/ml (F), 1j): 128± 11 ns
- nombre de cellules observées par champ de microscope (cellules de lignée MCF-7; 10µg/ml (F), 2j): 93± 4
- nombre de cellules observées par champ de microscope (cellules de lignée MCF-7; 10µg/ml (F), 3j): 87± 20
- nombre de cellules observées par champ de microscope (cellules de lignée MCF-7; 10µg/ml (F), 4j): 88± 18
- croissance des cellules MCF-7 (cellules de lignée MCF-7; dose-indépendante, summary of tableau C): ralentit fortement la croissance
- nombre de cellules observées par champ de microscope (cellules de lignée HBL; 0.1µg/ml (f), 1j): 402±100 ns
- nombre de cellules observées par champ de microscope (cellules de lignée HBL; 0.1µg/ml (f), 2j): 233± 36
- nombre de cellules observées par champ de microscope (cellules de lignée HBL; 0.1µg/ml (f), 3j): 633± 83 ns
- nombre de cellules observées par champ de microscope (cellules de lignée HBL; 0.1µg/ml (f), 4j): 474±265 ns
- nombre de cellules observées par champ de microscope (cellules de lignée HBL; 1µg/ml (M), 1j): 282± 17 ns
- nombre de cellules observées par champ de microscope (cellules de lignée HBL; 1µg/ml (M), 2j): 187± 35
- nombre de cellules observées par champ de microscope (cellules de lignée HBL; 1µg/ml (M), 3j): 199± 71
- nombre de cellules observées par champ de microscope (cellules de lignée HBL; 1µg/ml (M), 4j): 197± 67
- nombre de cellules observées par champ de microscope (cellules de lignée HBL; 10µg/ml (F), 1j): 318± 83 ns
- nombre de cellules observées par champ de microscope (cellules de lignée HBL; 10µg/ml (F), 2j): 166± 28
- nombre de cellules observées par champ de microscope (cellules de lignée HBL; 10µg/ml (F), 3j): 553±100 ns
- nombre de cellules observées par champ de microscope (cellules de lignée HBL; 10µg/ml (F), 4j): 210± 48
- croissance des cellules HBL (cellules de lignée HBL; à moyenne et forte dose, summary of tableau C BIS): ralentit faiblement la croissance
- effet sur le cycle cellulaire (MCF-7) (cellules MCF-7): bloque les cellules en phase S
- solubilité dans l'eau [1]: hydrosoluble
